US20060258685A1, “Substituted pyrazolopyrimidines, methods for the production thereof, use of the same for controlling pathogenic fungi, and agents containing said compounds” (priority 2003, published 2006)

System: Sphaerotheca fuliginea
Assay: Activity against mildew on cucumber leaves caused by Sphaerotheca fuliginea, protective application
Assay type: in vivo
Details: 250 ppm active compound, sprayed to runoff, cucumber seedlings, assessed after 7 days, untreated plants 90% infected
Experimental: The active compounds were separately prepared as a stock solution of 0.25% by weight of active compound in acetone or DMSO. 1% by weight of emulsifier Uniperol® EL (wetting agent having emulsifying and dispersing action based on ethoxylated alkylphenols) was added to this solution, and the solution was diluted with water to the desired concentration. Leaves of potted cucumber seedlings of the cultivar “Chinese snake” were, at the cotyledon stage, sprayed to runoff point with an aqueous suspension having the concentration of active compound stated below. 20 hours after the spray coating had dried on, the plants were inoculated with an aqueous spore suspension of mildew of cucumber (Sphaerotheca fuliginea). The plants were then cultivated in a greenhouse at temperatures between 20 and 24° C. and 60 to 80% relative atmospheric humidity for 7 days. The extent of the mildew development was then determined visually in % infection of the cotyledon area.

SMILES: CC1CCN(c2c(-c3c(F)cc(F)cc3F)c(Cl)nc3c(Cl)cnn23)CC1 [III-1, 3,5-Dichloro-7-(4-methylpiperidin-1-yl)-6-(2,4,6-trifluorophenyl)-pyrazolo[1,5-a]pyrimidine]
- extent of the mildew development, determined visually in % infection of the cotyledon area: no infection
